Our source for the EC50 values is patent US10336675B2, “Biaromatic vitamin D analogs” (DSM IP ASSETS B.V., priority 2015, dated 2019).

This experiment concerns the target T1, human vitamin D receptor (VDR) (Homo sapiens, UniProt P11473).
T1 construct: expressed in transfected cells; host or cells: HEK293 cells (ATCC), transient transfection with a GATEWAY-compatible pCMV-BD vector
T1 sequence (P11473 127-423 limits assumed): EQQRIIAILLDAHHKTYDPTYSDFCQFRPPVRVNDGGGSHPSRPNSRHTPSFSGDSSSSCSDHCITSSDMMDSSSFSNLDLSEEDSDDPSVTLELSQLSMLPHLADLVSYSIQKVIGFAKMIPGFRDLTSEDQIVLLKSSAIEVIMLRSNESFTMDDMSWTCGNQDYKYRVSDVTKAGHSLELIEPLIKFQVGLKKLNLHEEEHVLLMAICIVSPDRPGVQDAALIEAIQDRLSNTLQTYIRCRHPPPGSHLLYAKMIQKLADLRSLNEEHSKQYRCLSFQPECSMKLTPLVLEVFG
The experiment in a line: Human vitamin D receptor (VDR) agonist activity: GAL4-VDR LBD luciferase transactivation assay in transiently transfected HEK293 cells. It is filed as cell-based. The note with it: VDR LBD-GAL4 DBD fusion, pFR-Luc luciferase reporter, 16 h incubation, read-out: Effective concentrations of half maximal activation (EC50). The source says: By way of example, the human vitamin D receptor (VDR) agonist activity of the claimed compounds can be tested using a cell based transactivation assay in an eukaryotic cell line. After a co-transfection, using a reporter plasmid construct and a hybrid receptor construct containing the ligand-binding domain of the human VDR linked to the DNA-binding domain of the yeast transcription factor GAL4, the cultured cells were stimulated by the VDR agonists. The hybrid VDR-GAL4 receptor binds the VDR agonists and transactivates luciferase reporter expression through the GAL4-response elements in the promoter of the luciferase gene (reporter construct). The VDR agonist binding and transactivation is determined by measuring the luciferase luminescence activity. The effective concentration of half maximal activation (EC50) was determined for the VDR agonists by means of dose-response experiments. The details of the protocol method of this test according to the invention are described in the example section.
Testing of the Human Vitamin D Receptor (VDR) Agonist Activity of the Compounds
The transient transfections were performed in HEK293 cells (ATCC, Molsheim, France) grown in minimum essential medium (Eagle) with Earle's balanced salt solution without L-glutamine and supplemented with 10% fetal bovine serum (Sigma-Aldrich Corp., St. Gallen, Switzerland), 2 mM glutamax (Life Technologies AG, Basel, Switzerland), 0.1 mM non-essential amino acids (Life Technologies), and 1 mM sodium pyruvate (Life Technologies) at 37° C. in 5% CO2. For transfection, 7.5×10^4 cells were plated per well (80 μl) in white 96-well cell culture plates with clear bottom (Corning, Basel, Switzerland) in minimum essential medium (Eagle) with Earle's balanced salt solution without L-glutamine and without phenol red supplemented with 10% charcoal-treated fetal bovine serum (HyClone Laboratories, Inc., Logan, Utah, USA), 2 mM glutamax, 0.1 mM non-essential amino acids, and 1 mM sodium pyruvate. The cells were transiently transfected before stimulation the next day at >80% confluence by polyethylene-imine-based transfection. Compound stocks were prepared in DMSO, pre-diluted in PBS (0.45% final DMSO concentration), and added in the respective dilution 5 h after the addition of the transfection mixture onto the cells. The cells were again incubated for additional 16 h before firefly and renilla luciferases activity was measured sequentially in the same cell extract using buffers according to established protocols (Promega AG, Dübendorf, Switzerland). Transfection efficiency was controlled to the pRL-TK renilla luciferase reporter expression.
On the technique in general: In a reporter assay the amount or activity of a reporter protein is the signal.

Structures are written as SMILES.

Consider `CC/C(=C\C=C\C(O)(CC)CC)c1cccc(CCc2ccc(C(O)C(C)CO)cc2)c1` (stereo not shown) [I-d, 1-(4-(3-((3E,5E)-7-ethyl-7-hydroxynona-3,5-dien-3-yl)phenethyl)phenyl)-2-methylpropane-1,3-diol], for which the EC50 amounted to 28 nM. Turning to `CC/C(=C\C=C\C(O)(CC)CC)c1cccc(CCc2ccc(C(O)C(C)C(C)O)cc2)c1` (stereo not shown) [I-f, 1-(4-{2-[3-((1E,3E)-1,5-Diethyl-5-hydroxy-hepta-1,3-dienyl)-phenyl]-ethyl}-phenyl)-2-methylbutane-1,3-diol], the EC50 amounted to 34 nM. The figure for `CC/C(=C\C=C\C(O)(CC)CC)c1cccc(CCc2ccc(C(O)CCO)cc2)c1` (racemic) [I-c, 1-(4-(3-((3E,5E)-7-ethyl-7-hydroxynona-3,5-dien-3-yl)phenethyl)phenyl)propane-1,3-diol] is 13 nM; for `CC/C(=C\C=C\C(O)(CC)CC)c1cccc(CCc2ccc(C(O)C(CO)CCCO)cc2)c1` (stereo not shown) [I-e, 1-(4-(3-((3E,5E)-7-ethyl-7-hydroxynona-3,5-dien-3-yl)phenethyl)phenyl)-2-(hydroxymethyl)pentane-1,5-diol] it is 30 nM; for `CC/C(=C\C=C\C(O)(C(F)(F)F)C(F)(F)F)c1cccc(CCc2ccc(C(O)CCO)cc2)c1` (racemic) [I-b, 1-(4-(3-((3E,5E)-8,8,8-trifluoro-7-hydroxy-7-(trifluoromethyl)octa-3,5-dien-3-yl)phenethyl)phenyl)propane-1,3-diol] it is 12 nM.

Take `CC/C(=C\C=C\C(O)(CC)CC)c1cccc(CCc2ccc(C(O)CC(C)O)cc2)c1` (stereo not shown) [I-a, 1-(4-(3-((3E,5E)-7-ethyl-7-hydroxynona-3,5-dien-3-yl)phenethyl)phenyl)butane-1,3-diol]: the EC50 was 4 nM.

Turning to `CC/C(=C\C=C\C(O)(CC)CC)c1cccc(CCc2ccc(C(O)C(CO)CCCCO)cc2)c1` (stereo not shown) [Comp1, reference compound], the EC50 was 111 nM.
